17 compounds from patent US20250250230A1, “HETEROCYCLIC COMPOUND” (TAKEDA PHARMACEUTICAL COMPANY LIMITED, priority 2022, published 2025) can be followed below.

The experiment deals with T1, human orexin type 2 receptor (Homo sapiens, UniProt O43614).
T1 construct: expressed in transfected cells
T1 sequence (O43614 1-444): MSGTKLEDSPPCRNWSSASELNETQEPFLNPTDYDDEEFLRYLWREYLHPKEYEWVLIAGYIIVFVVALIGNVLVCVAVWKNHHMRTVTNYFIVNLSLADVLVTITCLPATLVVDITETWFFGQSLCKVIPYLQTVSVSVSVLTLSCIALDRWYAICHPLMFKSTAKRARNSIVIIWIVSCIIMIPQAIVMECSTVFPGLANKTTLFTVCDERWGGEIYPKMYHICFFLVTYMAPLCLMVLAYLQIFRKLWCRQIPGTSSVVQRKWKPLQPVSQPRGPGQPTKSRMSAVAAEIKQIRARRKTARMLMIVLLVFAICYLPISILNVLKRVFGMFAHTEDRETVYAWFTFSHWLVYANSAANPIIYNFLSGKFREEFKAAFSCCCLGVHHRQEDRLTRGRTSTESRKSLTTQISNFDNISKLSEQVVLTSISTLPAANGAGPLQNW
As to the kind of experiment: Measurement of orexin type 2 receptor agonist activity (calcium fluorescence, Fluo-4 AM, FDSS). The format is cell-based. The settings on record: test compound 3 μM; CHO cells expressing human OX2 receptor; DMSO = 0%, orexin A (human) = 100%. In a few lines: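 CHO-K1 cells stably expressing human OX2R were loaded with Fluo-4 AM (30 min 37 °C, 30 min RT) in HEPES-buffered HBSS with 0.1% BSA and probenecid. Calcium fluorescence was followed on FDSS for 2 min after compound addition; activity normalised to DMSO (0%) and 10 nM orexin A (100%).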

Regarding `CS(=O)(=O)NC1CCCN(C(=O)C2CC2c2ncccc2-c2c(F)cccc2F)C1` (racemic) [Example 189, a mixture of rac-N-[(3R)-1-{(1R,2R)-2-[3-(2,6-difluorophenyl)pyridin-2-yl]cyclopropane-1-carbonyl}piperidin-3-yl]methanesulfonamide and rac-N-[(3S)-1-{(1R,2R)-2-[3-(2,6-difluorophenyl)pyridin-2-yl]cyclopropane-1-carbonyl}piperidin-3-yl]methanesulfonamide], the “OX2R agonist activity (3 μM, %)” value is 67%.
For the compound `CC1(C(=O)N2CC[C@H](NS(C)(=O)=O)C2)CC1c1ccccc1-c1c(F)cccc1F` (stereo partly drawn) [Example 247, N-{(3S)-1-[(1R,2S)-2-(2′,6′-difluoro[1,1′-biphenyl]-2-yl)-1-methylcyclopropane-1-carbonyl]pyrrolidin-3-yl}methanesulfonamide, or N-{(3S)-1-[(1S,2R)-2-(2′,6′-difluoro[1,1′-biphenyl]-2-yl)-1-methylcyclopropane-1-carbonyl]pyrrolidin-3-yl}methanesulfonamide], the “OX2R agonist activity (3 μM, %)” value came to 100%.
Consider `CS(=O)(=O)NC1CN(C(=O)C2CC2c2ccccc2-c2c(F)cccc2F)CCC1(F)F` (racemic) [Example 129, a mixture of rac-N-{(3R)-1-[(1R,2R)-2-(2′,6′-difluoro[1,1′-biphenyl]-2-yl)cyclopropane-1-carbonyl]-4,4-difluoropiperidin-3-yl}methanesulfonamide and rac-N-{(3S)-1-[(1R,2R)-2-(2′,6′-difluoro[1,1′-biphenyl]-2-yl)cyclopropane-1-carbonyl]-4,4-difluoropiperidin-3-yl}methanesulfonamide], for which the “OX2R agonist activity (3 μM, %)” value is listed as 101%.
On to `CN(C)S(=O)(=O)NCC1CCN1C(=O)C1CC1c1ccccc1-c1c(F)cccc1F` (stereo not drawn) [Example 250, N′-({1-[2-(2′,6′-difluoro[1,1′-biphenyl]-2-yl)cyclopropane-1-carbonyl]azetidin-2-yl}methyl)-N,N-dimethylsulfuric diamide optical isomer], for which the “OX2R agonist activity (3 μM, %)” value came out at 104%.
Regarding `CCS(=O)(=O)NC[C@@H]1CCN1C(=O)[C@@H]1C[C@H]1c1ccccc1-c1c(F)cccc1F` [Example 362, N-({(2S)-1-[(1R,2R)-2-(2′,6′-difluoro[1,1′-biphenyl]-2-yl)cyclopropane-1-carbonyl]azetidin-2-yl}methyl)ethanesulfonamide], the “OX2R agonist activity (3 μM, %)” value is listed as 89%.
Regarding `O=C(C1CC1c1ccccc1-c1c(F)cccc1F)N1CCCC(NS(=O)(=O)C2CC2)C1` (racemic) [Example 123, a mixture of rac-N-{(3R)-1-[(1R,2R)-2-(2′,6′-difluoro[1,1′-biphenyl]-2-yl)cyclopropane-1-carbonyl]piperidin-3-yl}cyclopropanesulfonamide and rac-N-{(3S)-1-[(1R,2R)-2-(2′,6′-difluoro[1,1′-biphenyl]-2-yl)cyclopropane-1-carbonyl]piperidin-3-yl}cyclopropanesulfonamide], the “OX2R agonist activity (3 μM, %)” value came to 100%.
`CS(=O)(=O)NC12CC1CN(C(=O)C1CC1c1ccccc1-c1c(F)cccc1F)C2` (stereo not drawn) [Example 272, N-{3-[2-(2′,6′-difluoro[1,1′-biphenyl]-2-yl)cyclopropane-1-carbonyl]-3-azabicyclo[3.1.0]hexan-1-yl}methanesulfonamide optical isomer]: the “OX2R agonist activity (3 μM, %)” value is 99%.
Take `CS(=O)(=O)NCC1CCN1C(=O)C1CC1c1ccccc1-c1c(F)cccc1F` (stereo not drawn) [Example 276, N-({1-[2-(2′,6′-difluoro[1,1′-biphenyl]-2-yl)cyclopropane-1-carbonyl]azetidin-2-yl}methyl)methylsulfonamide optical isomer]: the “OX2R agonist activity (3 μM, %)” value worked out at 101%.
For the compound `CCS(=O)(=O)NC1CCN(C(=O)C2CC2c2ccccc2-c2c(F)cccc2F)C1` (racemic) [Example 27, a mixture of rac-N-{(3R)-1-[(1R,2R)-2-(2′,6′-difluoro[1,1′-biphenyl]-2-yl)cyclopropane-1-carbonyl]pyrrolidin-3-yl}ethanesulfonamide and rac-N-{(3S)-1-[(1R,2R)-2-(2′,6′-difluoro[1,1′-biphenyl]-2-yl)cyclopropane-1-carbonyl]pyrrolidin-3-yl}ethanesulfonamide], the “OX2R agonist activity (3 μM, %)” value was 98%.
As to `CC(NS(C)(=O)=O)[C@@H]1[C@H](F)CN1C(=O)[C@@H]1C[C@@]1(F)c1ccccc1-c1c(F)cccc1F` (stereo partly drawn) [Example 415, N-[(1R)-1-{(2R,3R)-1-[(1S,2S)-2-(2′,6′-difluoro[1,1′-biphenyl]-2-yl)-2-fluorocyclopropane-1-carbonyl]-3-fluoroazetidin-2-yl}ethyl]methanesulfonamide, or N-[(1S)-1-{(2R,3R)-1-[(1S,2S)-2-(2′,6′-difluoro[1,1′-biphenyl]-2-yl)-2-fluorocyclopropane-1-carbonyl]-3-fluoroazetidin-2-yl}ethyl]methanesulfonamide], the “OX2R agonist activity (3 μM, %)” value was 96%.
`CCNS(=O)(=O)NC[C@@H]1[C@H](F)CN1C(=O)[C@@H]1C[C@@]1(F)c1ccc(F)cc1-c1c(F)cccc1F` [Example 427, N-ethyl-N′-({(2R,3R)-3-fluoro-1-[(1S,2S)-2-fluoro-2-(2′,5,6′-trifluoro[1,1′-biphenyl]-2-yl)cyclopropane-1-carbonyl]azetidin-2-yl}methyl)sulfuric diamide]: the “OX2R agonist activity (3 μM, %)” value is 96%.
With `CS(=O)(=O)NC1CCCN(C(=O)C2CC2c2cccc(F)c2-c2ccccc2F)CC1` (racemic) [Example 106, a mixture of rac-N-{(4R)-1-[(1R,2R)-2-(2′,6-difluoro[1,1′-biphenyl]-2-yl)cyclopropane-1-carbonyl]azepan-4-yl}methanesulfonamide and rac-N-{(4S)-1-[(1R,2R)-2-(2′,6-difluoro[1,1′-biphenyl]-2-yl)cyclopropane-1-carbonyl]azepan-4-yl}methanesulfonamide] the figure was 63%; with `CCS(=O)(=O)NC[C@@H]1CCN1C(=O)[C@@H]1C[C@@]1(F)c1ccccc1-c1c(F)cccc1F` (single isomer, unassigned) [Example 351, N-({(2R)-1-[(1S,2S)-2-(2′,6′-difluoro[1,1′-biphenyl]-2-yl)-2-fluorocyclopropane-1-carbonyl]azetidin-2-yl}methyl)ethanesulfonamide, or N-({(2S)-1-[(1S,2S)-2-(2′,6′-difluoro[1,1′-biphenyl]-2-yl)-2-fluorocyclopropane-1-carbonyl]azetidin-2-yl}methyl)ethanesulfonamide], 101%.
On to `CS(=O)(=O)NC1CCN(C(=O)C2CC2c2ccccc2-c2ccc(F)cc2F)C1` (racemic) [Example 10, a mixture of rac-N-{(3R)-1-[(1R,2R)-2-(2′,4′-difluoro[1,1′-biphenyl]-2-yl)cyclopropane-1-carbonyl]pyrrolidin-3-yl}methanesulfonamide and rac-N-{(3S)-1-[(1R,2R)-2-(2′,4′-difluoro[1,1′-biphenyl]-2-yl)cyclopropane-1-carbonyl]pyrrolidin-3-yl}methanesulfonamide], for which the “OX2R agonist activity (3 μM, %)” value was 80%.
Take `CS(=O)(=O)N[C@H]1CCN(C(=O)C2CC2c2c(F)cccc2-c2c(F)cccc2F)C1` (single isomer, unassigned) [Example 195, N-{(3S)-1-[(1R,2R)-2-(2′,3,6′-trifluoro[1,1′-biphenyl]-2-yl)cyclopropane-1-carbonyl]pyrrolidin-3-yl}methanesulfonamide, or N-{(3S)-1-[(1S,2S)-2-(2′,3,6′-trifluoro[1,1′-biphenyl]-2-yl)cyclopropane-1-carbonyl]pyrrolidin-3-yl}methanesulfonamide]: the “OX2R agonist activity (3 μM, %)” value is 99%.
Regarding `CS(=O)(=O)N[C@H]1CCN(C(=O)C2CC2c2ccc(F)cc2-c2c(F)cccc2F)C1` (single isomer, unassigned) [Example 200, N-{(3S)-1-[(1R,2R)-2-(2′,5,6′-trifluoro[1,1′-biphenyl]-2-yl)cyclopropane-1-carbonyl]pyrrolidin-3-yl}methanesulfonamide, or N-{(3S)-1-[(1S,2S)-2-(2′,5,6′-trifluoro[1,1′-biphenyl]-2-yl)cyclopropane-1-carbonyl]pyrrolidin-3-yl}methanesulfonamide], the “OX2R agonist activity (3 μM, %)” value is given as 103%.
`CS(=O)(=O)NC[C@@H]1[C@H](F)CN1C(=O)C1(CC#N)CC1c1ccccc1-c1c(F)cccc1F` (stereo partly drawn) [Example 428, N-({(2R,3R)-1-[(1R,2R)-1-(cyanomethyl)-2-(2′,6′-difluoro[1,1′-biphenyl]-2-yl)cyclopropane-1-carbonyl]-3-fluoroazetidin-2-yl}methyl)methanesulfonamide, or N-({(2R,3R)-1-[(1S,2S)-1-(cyanomethyl)-2-(2′,6′-difluoro[1,1′-biphenyl]-2-yl)cyclopropane-1-carbonyl]-3-fluoroazetidin-2-yl}methyl)methanesulfonamide]: the “OX2R agonist activity (3 μM, %)” value came to 53%.
